Where a name gives a salt, the structure may show the parent alone.
How the values were obtained:
Conditions in all cases: 72 h
HL-60 [1] = test: area under dose-response curve (viability, 1 nM-10 uM) (fraction (0-1)); higher = more sensitive
Outline: (§1)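 Four-parameter log-logistic fits in drc and PharmacoGx supplied area under the curve where it is given. Underlying viability came from CellTiter-Glo, normalised to DMSO and proteasome-inhibitor wells, with the proteasome inhibitor at 10 μM. HL-60 cells in RPMI 1640 plus 10% FBS had been rescreened against the full library at five tenfold concentrations of 1–10,000 nM, in duplicate on 384-well plates, with DMSO or 100 nM of one of three metabolic inhibitors, for 72 h at 37 °C, 5% CO2.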

HL-60 [2] = test: cell viability (% survival relative to DMSO control); higher = less cytotoxic
Outline: as §1

Mono-Mac-6 [3] = test: cell viability (% survival relative to DMSO control, bortezomib = 0%); higher = less cytotoxic
Outline: (§2)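 Reported values are percent survival from duplicate wells, averaged. Fifteen myeloid leukaemia cell lines were treated in 384-well plates with compounds at 1, 10, 100, 1000 or 10000 nM for 72 h at 37 °C in 5% CO2. Signals from CellTiter-Glo luminescence were scaled with vehicle as 100% and a 10 µM positive control as 0%.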

ML-2 [4] = test: as above
Outline: as §2

KU-812 [5] = test: as above
Outline: as §2

NOMO-1 [6] = test: as above
Outline: as §2

THP-1 [7] = test: as above
Outline: as §2

HEL [8] = test: as above
Outline: as §2

SHI-1 [9] = test: as above
Outline: as §2

LAMA-84 [10] = test: as above
Outline: as §2

K-562 [11] = test: as above
Outline: as §2

BV-173 [12] = test: as above
Outline: as §2

MOLM-13 [13] = test: as above
Outline: as §2

KG-1 [14] = test: as above
Outline: as §2

MV4-11 [15] = test: as above
Outline: as §2

KCL-22 [16] = test: as above
Outline: as §2

HL-60 [17] = test: as above
Outline: as §2

Mono-Mac-6 [18] = tested on: Mono-Mac-6
Outline: (§3)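 Fifteen myeloid leukaemia cell lines were seeded in RPMI 1640 at densities titrated to the linear growth range and placed in 384-well plates with acoustically pre-printed compounds at five tenfold doses from 1 to 10,000 nM, in duplicate. After 72 h at 37 °C with 5% CO2, luminescent ATP viability was normalised to vehicle and to a positive control at 10 µM, and curves were fitted with a four-parameter log-logistic model. The IC50 was obtained from these fits.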

ML-2 [19] = tested on: ML-2
Outline: as §3

KU-812 [20] = tested on: KU-812
Outline: as §3

NOMO-1 [21] = tested on: NOMO-1
Outline: as §3

THP-1 [22] = tested on: THP-1
Outline: as §3

HEL [23] = tested on: HEL
Outline: as §3

SHI-1 [24] = tested on: SHI-1
Outline: as §3

LAMA-84 [25] = tested on: LAMA-84
Outline: as §3

K-562 [26] = tested on: K-562
Outline: as §3

BV-173 [27] = tested on: BV-173
Outline: as §3

MOLM-13 [28] = tested on: MOLM-13
Outline: as §3

KG-1 [29] = tested on: KG-1
Outline: as §3

MV4-11 [30] = tested on: MV4-11
Outline: as §3

KCL-22 [31] = tested on: KCL-22
Outline: as §3

HL-60 [32] = tested on: HL-60
Outline: as §3

Cc1cc(CS(=O)(=O)c2ccccc2)cc(OCc2ccc(CN3CCC[C@@H]3CO)cc2)c1 [PF 543 hydrochloride]
HL-60 [1]
Conditions	area under dose-response curve
co-treatment: AZD3965 100 nM	< 0.0301
co-treatment: DMSO vehicle	< 0.0301
co-treatment: GSK2194069 100 nM	< 0.0301
co-treatment: pictilisib 100 nM	< 0.0301

cell viability [%], HL-60 [2]
Conditions	0.001 µM	0.01 µM	0.1 µM	1 µM	10 µM
co-treatment: AZD3965 100 nM	95.8	101	100.5	95.55	96.1
co-treatment: DMSO vehicle	99.4	100	103	99.8	103
co-treatment: GSK2194069 100 nM	81.7	94.56	96.8	95.1	92.2
co-treatment: pictilisib 100 nM	79.4	97.3	93.9	99.7	96.7

CCOC(=O)c1ccc(-c2ccc(OC(=O)N(C)Cc3cccc(-c4ccncc4)c3)cc2)cc1 [WWL 113]
cell viability [%], HL-60 [2]
Conditions	0.001 µM	0.01 µM	0.1 µM	1 µM	10 µM
co-treatment: AZD3965 100 nM	99.55	98.5	94	97.8	101
co-treatment: DMSO vehicle	106	102	98.3	102.3	102
co-treatment: GSK2194069 100 nM	99.6	96	86.5	97.09	101
co-treatment: pictilisib 100 nM	101.2	103	85.6	96.7	101

CC/C=C\C[C@H]1C(=O)CC[C@@H]1CC(=O)OC [Methyl jasmonate]
cell viability [%]
Conditions	1 nM	10 nM	100 nM	1000 nM	10000 nM
BV-173 [12]	108	111	103	93.2	103
HEL [8]	97.3	99.1	114	99.5	111
HL-60 [17]	92.7	99.1	105	96.5	111
K-562 [11]	90.2	95.9	104	102	91.5
KCL-22 [16]	109	99.9	96.9	91.9	103
KG-1 [14]	115	95.7	93.9	101	105
KU-812 [5]	99.3	108	110	99.1	104
LAMA-84 [10]	95.6	100	105	98.7	110
ML-2 [4]	115	110	101	99.9	108
MOLM-13 [13]	108	113	116	94.3	96.6
MV4-11 [15]	106	104	108	105	101
Mono-Mac-6 [3]	102	101	111	96.2	107
NOMO-1 [6]	104	110	101	93	100
SHI-1 [9]	98.8	94.2	90.8	99.3	98
THP-1 [7]	103	111	101	95.3	106

Conditions	IC50 (cell viability) [µM]
BV-173 [27]	> 10
HEL [23]	> 10
HL-60 [32]	> 10
K-562 [26]	> 10
KCL-22 [31]	> 10
KG-1 [29]	> 10
KU-812 [20]	> 10
LAMA-84 [25]	> 10
ML-2 [19]	> 10
MOLM-13 [28]	> 10
MV4-11 [30]	> 10
Mono-Mac-6 [18]	> 10
NOMO-1 [21]	> 10
SHI-1 [24]	> 10
THP-1 [22]	> 10

CC/C=C\C[C@H]1C(=O)CC[C@@H]1CC(=O)OC [methyl jasmonate]
HL-60 [1]
Conditions	area under dose-response curve
co-treatment: AZD3965 100 nM	< 0.0301
co-treatment: DMSO vehicle	< 0.0301
co-treatment: GSK2194069 100 nM	< 0.0301
co-treatment: pictilisib 100 nM	< 0.0301

cell viability [%], HL-60 [2]
Conditions	0.001 µM	0.01 µM	0.1 µM	1 µM	10 µM
co-treatment: AZD3965 100 nM	98.2	106	100.7	105	106
co-treatment: DMSO vehicle	101	99.7	97.6	102.5	102
co-treatment: GSK2194069 100 nM	95.5	99.5	98.1	93.3	105
co-treatment: pictilisib 100 nM	96.58	104	101	109	99.6
